# Assay results as given in patent US11660326B2, “Bacterial-binding peptides for treatment of infectious diseases and related inflammatory processes” (priority 2018, dated 2023).
# Legend:
# [1] = tested on: mice undergoing CLP-induced septic shock; assay: Mouse survival following CLP-induced septic shock; type: in vivo, C57BL/6J mice; conditions: for effect on mice survival, in words: CLP-induced sepsis, compared to saline-treated group; for survival: single 6 mg/kg i.v. at +1 h post CLP, FIG. 7
# Description: FIG. 7. Comparative therapeutic effects of i.v. infused CD6-derived peptides on mouse survival following Cecal Ligation and Puncture (CLP)-induced sepsis. (A, B) C57BL/6J mice were i.v. infused with saline (n=25) or single 6 mg/kg doses of unlabeled CD6- (PD1, n=8; PD2, n=16; PD3, n=15; Pcons, n=12) or DMBT1 (pbs1, n=13) derived peptides at +1 h post CLP induction. A sham group (n=3) was included. In all cases average percent survival was analyzed over time for each group and compared with the saline-treated group using the long-rank t-test (*, P<0.05; **, P<0.01; ***, P<0.001).
# FIG. 8. Dose-, time- and via-dependent effects of CD6.PD3 infusion on mouse survival following CLP-induced sepsis. (A) C57BL/6 mice were i.v. infused at +1 h post CLP with saline (n=26) or single increasing doses (3 mg/kg, n=13; 6 mg/kg, n=15; and 12 mg/kg, n=8) of CD6.PD3 peptide. (B) C57BL/6 mice were i.v. infused with saline (n=4) or 6 mg/kg CD6.PD3 at different times post CLP (+1 h, n=5; +3 h, n=5; +6 h, n=6). (C) C57BL/6J mice were i.v. (n=11) or i.p. (n=9) infused with 6 mg/kg CD6.PD3 peptide or saline (n=9) at +1 h post CLP. In all cases, average percent of survival was analyzed over time and compared with the saline-treated group using a log-rank t-test (n.s., not significant; *, P<0.05. **, P<0.01; ***, P<0.001).
# FIG. 10. Additive effects of combined administration of CD6.PD3 plus Imipenem/Cilastatin on mouse survival following CLP-induced sepsis. C57BL/6J mice were therapeutically infused at +1 h post CLP with saline (n=36), CD6.PD3 (6 mg/kg i.v.; n=25), Imipenem/Cilastatin (I/C, 50 mg/kg/12 h i.p.; n=9) or a combination of the two later (I/C+PD3, n=11). In all cases average percent survival was analyzed over time for each group and compared to the I/C plus CD6.PD3 group using the long-rank t-test (**, P<0.02; ***, P<0.002).
# Animal procedures were approved by the Animal Experimentation Ethical Committee, University of Barcelona. High-grade mortality (≥90% mortality within the first 48-72 h) CLP-induced septic shock was induced in 8-10 week old C57BL/6J male mice (20-25 g; Charles River) as previously reported (Martinez-Florensa M, et al., 2017, Protective Effects of Human and Mouse Soluble Scavenger-Like CD6 Lymphocyte Receptor in a Lethal Model of Polymicrobial Sepsis, Antimicrob Agents Chemother 61:e01391-16).
# Survival assays were analyzed by a Log-Rank χ^2 test using GraphPad Prism software. The significance of differences between experimental groups was determined by 2-tailed paired T test with 95% of confidence intervals (CI). P values were considered significant when P<0.05. Statistical analysis (mean±SEM) was performed using a 2-tailed Mann-Whitney test, with 95% of Cl.
# [2] = Dynamic light scattering (DLS), hydrodynamic size of peptides in solution; type: physicochemical; conditions: 10 μg/mL in PBS, 25° C.
# Description: FIG. 5. Analysis of the hydrodynamic size of CD6-derived peptides in solution. The dynamic light scattering (DLS) analysis of the hydrodynamic diameter of CD6 (PD1, PD2, PD3, and Pcons) and DMBT-1/SAG (pbs1) derived peptides (10 μg/mL) in PBS is shown. The y axis represents the relative intensity of the scattered light; the x axis denotes the hydrodynamic diameter of the particles present in the solution. One representative experiment of four performed is shown (left). The numeric values obtained for each peptide are also shown (right).
# The hydrodynamic diameters of peptides (10 μg/mL in PBS) were measured at 25° C. in a Zetasizer Nano S from Malvern Instruments (Worcestershire, UK) equipped with a 633 nm HeNe laser, as described (Saenz A, et al., 2010, Fluidizing effects of C-reactive protein on lung surfactant membranes: protective role of surfactant protein A, FASEB J 24:3662-73). Four scans were recorded for each sample, and samples were analyzed in triplicate.
# [3] = tested on: G+ and G− bacterial suspensions (including MDR strains); assay: Bacterial agglutination assay; type: cell-based; conditions: peptide 5, 50 and 200 μg/mL; G+ and G− bacterial suspensions incl. MDR strains
# Description: FIG. 2. Bacterial agglutination properties of CD6-derived peptides. Increasing concentrations (5, 50 and 200 μg/mL) of the indicated CD6 (PD1, PD2, and PD3), DMBT-1 (pbs1; C+) and CD5 (PD2; C-)-derived peptides were incubated for 2 h at room temperature in 96-well U-bottomed plates with alive bacterial cell suspensions (75×10^6 CFU/mL) in TTC buffer (50 mM Tris pH 7.5 plus 150 mM NaCl, 0.1% Tween 20, and 1 mM Ca^2+). Bacterial agglutination was scored and condensed by two independent observers as −, +/−, +, ++ or +++. (A) Summary of the agglutination results obtained with the indicated panel of Gram-negative (Multidrug resistant Acinetobacter baumanii clinical isolate; Enterobacter cloacae ATCC 23355; Escherichia coli ATCC 25922; Klebsiella pneumoniae ATCC 13883; […]; Pseudomonas aeruginosa ATCC 27853) and Gram-positive (Staphyloccocus aureus ATCC 25923; Methicilin-resistant Staphylococus aureus (MRSA) clinical isolate) bacterial strains. (B) Representative agglutination results obtained for the MRSA clinical isolate.
# 5×10^8 colony-forming units (CFU)/mL diluted in TTC buffer (50 mM Tris pH 7.5 plus 150 mM NaCl, 0.1% Tween 20, and 1 mM Ca^2+) were mixed (1:1) with different peptide concentrations (0-200 μg/mL) in 96 U-bottomed well microtiter plates (Biofil) (Bikker F J, et al., 2002, Identification of the bacteria-binding peptide domain on salivary agglutinin (gp-340/DMBT1), a member of the scavenger receptor cysteine-rich superfamily, J Biol Chem 277:32109-15). After overnight incubation at 37° C., bacterial agglutination was examined by light microscopy and scored from -(absent) to +++ (maximal) by two independent observers. […]
Sequence,"survival rate post CLP ([1]; 3 mg/kg i.v. at +1 h post CLP, FIG. 8A) [%]","survival, i.v. versus i.p. pathway ([1]; 6 mg/kg at +1 h post CLP, FIG. 8C)","survival rate post CLP ([1]; 6 mg/kg i.v. at +1 h post CLP, FIG. 8A) [%]","survival rate post CLP ([1]; 6 mg/kg i.v. at +1 h post CLP, FIG. 8B) [%]","survival rate post CLP ([1]; 6 mg/kg i.v. at +3 h post CLP, FIG. 8B) [%]","survival rate post CLP ([1]; 12 mg/kg i.v. at +1 h post CLP, FIG. 8A) [%]","mice survival ([1]; +1 h post CLP, CD6.PD3 6 mg/kg i.v., Imipenem/Cilastatin 50 mg/kg/12 h i.p., FIG. 10) [%]","effect on mice survival, in words [1]",survival [1] [%],"hydrodynamic size, first (or single) peak [2] [nm]","hydrodynamic size, second peak [2] [nm]",bacterial agglutination [3]
GQVEVHFRGVW (CD6.PD3),23.08,No significant differences,37.5,40,20,40,30.8,improves the survival,36.36,630±3,5151±7,dose-dependent agglutination
GRVEMLEHGEW [CD6.PD2],,,,,,,,,12.5,379±5,,not and lower bacterial agglutination properties
GTVEVRLEASW [CD6.PD1],,,,,,,,No significant effects,,321±5,1484±8,dose-dependent agglutination
